What was measured:
[1] = molecular target: T1, Prostaglandin E2 receptor EP1 subtype (Rattus norvegicus, UniProt P70597); test: Antagonist activity at rat EP1 receptor expressed in African green monkey COS1 cells assessed as decrease in prostaglandin E2-induced increase in intracellular calcium level incubated for 90 mins measured for 60 secs by Fluo 4-AM dye based fluorescence assay; format: functional, cell-based
T1 sequence (P70597 whole entry): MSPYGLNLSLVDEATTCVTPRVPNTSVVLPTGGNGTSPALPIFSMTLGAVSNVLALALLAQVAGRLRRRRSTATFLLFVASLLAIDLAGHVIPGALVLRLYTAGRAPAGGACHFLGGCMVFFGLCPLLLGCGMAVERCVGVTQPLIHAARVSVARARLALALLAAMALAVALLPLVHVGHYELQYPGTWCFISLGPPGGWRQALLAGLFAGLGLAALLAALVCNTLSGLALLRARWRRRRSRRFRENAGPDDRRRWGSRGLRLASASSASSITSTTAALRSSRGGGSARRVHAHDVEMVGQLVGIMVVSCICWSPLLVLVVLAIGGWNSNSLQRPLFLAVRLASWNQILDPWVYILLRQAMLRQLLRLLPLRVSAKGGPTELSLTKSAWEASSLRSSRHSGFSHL

[2] = Total clearance in rat at 1 mg/kg, iv; format: ADME, organism-based; settings: in vivo
Rattus norvegicus [3] = test: Reduction in 17-PTP induced bladder contraction in Wistar rat assessed as change in intravesical pressure administered intravenously pretreated for 5 followed by 17-PTP challenge at every 30 mins interval for 245 mins; format: functional
[4] = Half life in rat at 1 mg/kg, iv; format: ADME, organism-based; settings: in vivo
Rattus norvegicus [5] = test: Reduction in 17-PTP induced bladder contraction in Wistar rat assessed as change in intravesical pressure administered intraduodenal pretreated for 5 followed by 17-PTP challenge at every 30 mins interval for 245 mins; format: functional
[6] = AUC (0 to 8 hrs) in rat at 1 mg/kg, iv; format: ADME, organism-based; set-up: dose 1 mg/kg, time < 8 hr, route intravenous; settings: in vivo
[7] = Oral bioavailability in rat at 1 mg/kg; format: ADME, organism-based; settings: in vivo
[8] = AUC (0 to infinity) in rat at 1 mg/kg, po; format: ADME, organism-based; set-up: dose 1 mg/kg, route oral, time infinity; settings: in vivo
[9] = Volume of distribution in rat at 1 mg/kg, iv; format: ADME, organism-based; settings: in vivo
[10] = AUC (0 to 8 hrs) in rat at 1 mg/kg, po; format: ADME, organism-based; set-up: time < 8 hr, dose 1 mg/kg, route oral; settings: in vivo
[11] = Half life in rat at 1 mg/kg, po; format: ADME, organism-based; settings: in vivo
[12] = AUC (0 to infinity) in rat at 1 mg/kg, iv; format: ADME, organism-based; set-up: dose 1 mg/kg, time infinity, route intravenous; settings: in vivo

SMILES | IC50 [1] [nM] | further results
Cc1cc(C(=O)O)nn1Cc1cc(Cl)cc2cc(-c3ccccc3)oc12 | 22 | 
C=Cc1cc(Cn2nc(C(=O)O)cc2C)n2nc(-c3ccccc3)cc2c1 | 360 | 
Cc1cc(C(=O)O)nn1Cc1cc(Cl)cc2cc(CC(C)C)nn12 | 1400 | 
Cc1cc(C(=O)O)nn1Cc1cc(Cl)cc2cc(C3CCCCC3)nn12 | 71 | 
Cc1cc(C(=O)O)nn1Cc1cc(C(F)(F)F)cc2cc(-c3ccccc3)nn12 | 300 | 
Cc1cc(C(=O)O)nn1Cc1cc(C#N)cc2cc(-c3ccccc3)nn12 | 1000 | 
Cc1cc(C(=O)O)nn1Cc1cc(Cl)cc2cc(-c3ccccc3Cl)nn12 | 220 | 
Cc1cc(C(=O)O)nn1Cc1cc(Cl)cc2cc(C3CCCC3)nn12 | 410 | 
Cc1cc(Cn2nc(C(=O)O)cc2C)n2nc(-c3ccccc3)cc2c1 | 450 | 
O=C(O)c1ccn(Cc2cc(Cl)cc3cc(-c4ccccc4)nn23)c1 | 190 | 
Cc1cc(C(=O)O)nn1Cc1cc(Cl)cc2cc(-c3ccc(Cl)cc3)nn12 | 290 | 
CCCCc1cc2cc(Cl)cc(Cn3nc(C(=O)O)cc3C)n2n1 | 1900 | 
COc1cccc(-c2cc3cc(Cl)cc(Cn4nc(C(=O)O)cc4C)n3n2)c1 | 110 | 
COc1cc(Cn2nc(C(=O)O)cc2C)n2nc(-c3ccccc3)cc2c1 | 9600 | 
Cc1cc(C(=O)O)nn1Cc1cc(Cl)cc2cc(-c3cccc(Cl)c3)nn12 | 150 | 
COc1ccc(-c2cc3cc(Cl)cc(Cn4nc(C(=O)O)cc4C)n3n2)cc1 | 410 | 

SMILES | IC50 [1] [nM] | further results
CC(=O)c1cc(Cn2nc(C(=O)O)cc2C)n2nc(-c3ccccc3)cc2c1 | 600 | 
Cc1cc(C(=O)O)nn1Cc1ccc(Cl)c2cc(-c3ccccc3)nn12 | 2600 | 
O=C(O)c1ccn(Cc2cc(Cl)cc3cc(-c4ccccc4)nn23)n1 | 89 | 
CCCC/C=C/c1cc(Cn2nc(C(=O)O)cc2C)n2nc(-c3ccccc3)cc2c1 | 1500 | 
Cc1cc(C(=O)O)nn1Cc1cc(Cl)cc2cc(C3CC3)nn12 | 180 | 
CC(C)c1cc(C(=O)O)nn1Cc1cc(Cl)cc2cc(-c3ccccc3)nn12 | 1200 | 
Cc1cc(C(=O)O)nn1Cc1cc(Cl)cc2cc(C(C)(C)C)nn12 | 2100 | 
COc1ccccc1-c1cc2cc(Cl)cc(Cn3nc(C(=O)O)cc3C)n2n1 | 840 | 
CCc1cc(C(=O)O)nn1Cc1cc(Cl)cc2cc(-c3ccccc3)nn12 | 300 | 
COc1ccc2cc(-c3ccccc3)nn2c1Cn1nc(C(=O)O)cc1C | 1500 | 
Cc1cc(C(=O)O)nn1Cc1cc(Cl)cc2cc(-c3ccccc3)nn12 | 9.4 | clearance [2]: 2.59 mL/min/kg; Activity (Rattus norvegicus [3]): Dose-dependent effect; half-life [4]: 4.99 h; Activity (Rattus norvegicus [5]): Dose-dependent effect; AUC(0-t) at 8 h [6]: 5010 ng·h/mL; bioavailability [7]: 81%; AUC(0-inf) [8]: 6030 ng·h/mL; Vd [9]: 0.908 L/kg; AUC(0-t) at 8 h [10]: 4870 ng·h/mL; half-life [11]: 4.28 h; AUC(0-inf) [12]: 7470 ng·h/mL
CCCc1cc(C(=O)O)nn1Cc1cc(Cl)cc2cc(-c3ccccc3)nn12 | 97 | 
COc1ccc(Cn2nc(C(=O)O)cc2C)n2nc(-c3ccccc3)cc12 | 1100 | 
Cc1cc(C(=O)O)nn1Cc1cccc2cc(-c3ccccc3)nn12 | 120 | 
Cc1cc(C(=O)O)nn1Cc1c(Cl)ccc2cc(-c3ccccc3)nn12 | 540 | 
CC(C)Cc1cc(C(=O)O)nn1Cc1cc(Cl)cc2cc(-c3ccccc3)nn12 | 2000 | 
